From US20150119442A1, “Biocide agents against marine woodborers” (Teredo Marine Protection ApS, priority 2008, published 2015)
Like-named read-outs stand apart in the source and are kept apart here.

What was measured:
marine woodborers = assay: Protective effectiveness against marine borers, EN 275 harbour exposure; assay type: in vivo, shipworm; details: 6 months; compared to control subjects
Experimental: The guidelines and recommendations in EN 275: 1992—Wood preservatives—Determination of the protective effectiveness against marine borers were followed unless otherwise stated.
Wood specimens were made of sapwood of Pinus sylvestris in the dimensions: 200×75×25 mm3, with a hole ø25 mm in the centre. The specimens were produced by the Danish Technological Institute.
The biocide-impregnating solution was prepared in different compositions according to Table 4. pH was adjusted with hydrochloric acid, and 10 specimens were used for each composition of biocide-impregnating solution and each harbour exposure site.
The specimens were attached to test racks and placed in two different harbours in Denmark: Skagen (northern part of Jutland) and Rudkøbing (Langeland) on 26 and 24 Apr. 2007, respectively (FIG. 1). The specimens were collected again ˜6 months later on 23 and 25 Oct. 2007, respectively.
The attack by marine borers was evaluated by cutting up the specimen in five pieces and recording the number of borers present and the percentage of the area which they had attacked.

[1] = for Leaching of EDDS, specimen with end sealing / Leaching of EDDS, specimen without end sealing: after one week, mean ± SD
Description: The aim of this example is to show the leaching of EDDS in sea water, as well as the effect of the pH in sea water on the leaching.
Wood specimens were produced by the Danish Technological Institute, and made of sap wood of Pinus sylvestris in the dimension: 15×25×50 mm^3.
The impregnating solution used was an aqueous solution of 5% Octaquest® E30 (Innospec Limited, contains a 30% solution of trisodium-EDDS in water), 5% sodium carbonate and 5% ethanol. pH was adjusted to 4.5 with hydrochloric acid.
Three different sea water solutions were prepared using artificial sea water salt mix (Tropic Marin® Sea Salt) at half the recommended concentration (15 g/L corresponding to a specific gravity of 1010 kg/m^3), normal concentration (30 g/L corresponding to a specific gravity of 1019 kg/m^3) and half concentration with pH adjusted to 6. Specific gravity of sea water in the oceans range between 1020 and 1030 kg/m^3. For each solution six containers were prepared each containing five specimens. Half of the specimens in each solution were end sealed at both ends using Conclad 300 2-K membrane (product no. 5305A, Condor Kemi A/S, Denmark). The end seal was applied to evaluate the radial leaching of the impregnating agent in order to simulate the surfaces exposed in harbour piers.
The specimens were placed in the containers and 500 ml of sea water solution was added to each container.
After one week the water was collected and analysed for EDDS content by HPLC-UV; detection at 254 nm. The method used involved a reverse phase column and online complexing of EDDS with Cu(II)-ions. Quantifications were made from external standards (reference material used was “−30% Na3EDDS in water” from Fluka).

For O=C(O)C[C@H](NCCN[C@@H](CC(=O)O)C(=O)O)C(=O)O [EDDS, (S,S)-ethylenediamine-disuccinate], the “Effectiveness against attack of shipworm” value (marine woodborers) was “effective”, the Leaching ([1]; all sea water solutions, in seven days) was “about 30%” and the “Leaching from end sealed specimens compared with specimens without end sealing” value ([1]; all three types of sea water) was “significantly lower”. The “Leaching of EDDS, specimen with end sealing” value (“Leaching … with end sealing” for short) ([1]; sea water normal conc.) was 26.48 ± 0.92%, the “Leaching of EDDS, specimen without end sealing” value ([1]; sea water normal conc.) was 33.56 ± 0.62% and the “Leaching … with end sealing” value ([1]; sea water ½ conc. pH 6) was 30.07 ± 0.70%. The “Leaching of EDDS, specimen without end sealing” value ([1]; sea water ½ conc. pH 6) was 36.14 ± 0.89%, the “Leaching … with end sealing” value ([1]; sea water ½ conc.) was 32.08 ± 1.01% and the “Leaching of EDDS, specimen without end sealing” value ([1]; sea water ½ conc.) was 34.08 ± 0.59%.
